The source of these data is ChEMBL document CHEMBL1201862, “PubChem BioAssay data set” (2004).

Some test systems named below: A498; A549; CAKI-1; HCC 2998; HCT-116; KM12; LOX IMVI; MCF7; MDA-MB-231; MDA-MB-435; MDA-N; MOLT-4; NCI-H460; OVCAR-5; SK-MEL-2; SN12C; SNB-19; SW-620; UACC-257; NCI-H226.
Common to all, as to assay: DTP human tumour cell line panel, 48 h

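Growth conditions: 96-well plates. Treatment: test compound, 48 hours, 5 concentrations. Analysis: linear interpolation between bracketing concentrations; unreached endpoints set to highest concentration. GI50 = concentration required for 50% inhibition of growth.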 Calls of active or inactive are those of the source. No stated cut-off is given here; in the data, active = GI50 up to about 1.1 µM and inactive = higher.

Turning to `CCC(=O)Nc1ncnc2ncn(C(=O)CC)c12`, the GI50 in the experiment with A498, with A549, in the experiment on CAKI-1, with HCC 2998, in the experiment on HCT-116 and in the experiment with KM12 was > 100 µM (inactive) each time. For the same molecule, the GI50 in the experiment with LOX IMVI, in the experiment with MCF7, in the experiment with MDA-MB-231, in the experiment with MDA-MB-435, in the experiment on MDA-N and in the experiment on MOLT-4 was > 100 µM (inactive) each time. Also, the GI50 in the experiment on NCI-H460, in the experiment on OVCAR-5, with SK-MEL-2, in the experiment on SN12C, in the experiment with SNB-19 and in the experiment on SW-620 was > 100 µM (inactive) throughout. In addition, the GI50 (usually the concentration giving 50% growth inhibition) in the experiment on UACC-257 is > 100 µM (inactive).

In the case of `COCCCN(Cc1cc(OC)c(OC)c(OC)c1)C(=S)Nc1cccc(Cl)c1`, the GI50 in the experiment with A498 was 28.3 µM (inactive); in the experiment with A549 it was 29 µM (inactive); with CAKI-1, 21.5 µM (inactive); in the experiment on HCC 2998 it was 39.1 µM (inactive); in the experiment on HCT-116 it was 17.2 µM (inactive); in the experiment with KM12 it was 23.1 µM (inactive). For the same molecule, the GI50 with LOX IMVI is 21.5 µM (inactive); in the experiment on MCF7, 21.7 µM (inactive); in the experiment on MDA-MB-231, 26 µM (inactive); in the experiment on MDA-MB-435 it was 20.9 µM (inactive); with MDA-N, 19.2 µM (inactive); with MOLT-4, 13.4 µM (inactive). The GI50 in the experiment with NCI-H460 is 30.1 µM (inactive); in the experiment with OVCAR-5, 20.8 µM (inactive); in the experiment with SK-MEL-2, 23.1 µM (inactive); in the experiment on SN12C it was 24.4 µM (inactive); with SNB-19, 43.7 µM (inactive); in the experiment with SW-620, 31.8 µM (inactive). Besides, in the experiment with UACC-257, the GI50 is 19.6 µM (inactive).

With `CCN(CC)c1ccc(/C=C2\CCc3ccc([N+](=O)[O-])cc3C2=O)cc1`, the GI50 is 2.56 µM (inactive) in the experiment on A498; 4.58 µM (inactive) with A549; > 26.6 µM (inactive) in the experiment with CAKI-1; 10.1 µM (inactive) in the experiment on HCC 2998; 0.199 µM (active) in the experiment on HCT-116; 0.582 µM (active) in the experiment with KM12. The GI50 is 0.409 µM (active) with LOX IMVI; 0.535 µM (active) in the experiment with MCF7; 2.61 µM (inactive) in the experiment on MDA-MB-231; 0.169 µM (active) with MDA-MB-435; 0.17 µM (active) with MDA-N; 0.488 µM (active) in the experiment with MOLT-4. The GI50 was > 100 µM (inactive) in the experiment on NCI-H226; 3.84 µM (inactive) in the experiment on NCI-H460; > 100 µM (inactive) with OVCAR-5; 2.99 µM (inactive) in the experiment on SN12C; 1.42 µM (inactive) in the experiment on SNB-19; 0.297 µM (active) in the experiment with SW-620.

With `C=C1C(=O)O[C@@H]2C=C(C)C3=CC(=O)[C@](C)(C[C@H](OC(=O)/C(C)=C\C)[C@@H]12)O3`, the GI50 was 1.73 µM (inactive) with A549; 0.509 µM (active) with CAKI-1; 1.51 µM (inactive) in the experiment on HCC 2998; 0.282 µM (active) in the experiment on HCT-116; 1.3 µM (inactive) with KM12; 0.299 µM (active) in the experiment with LOX IMVI. Besides, the GI50 in the experiment on MCF7 is 0.41 µM (active); in the experiment with MDA-MB-231 it was 0.759 µM (active); in the experiment on MDA-MB-435 it was 0.813 µM (active); in the experiment with MDA-N, 0.311 µM (active); in the experiment with MOLT-4 it was 0.273 µM (active); in the experiment with NCI-H226, 2.28 µM (inactive). Further, the GI50 is 2.18 µM (inactive) in the experiment with NCI-H460; 1.97 µM (inactive) with OVCAR-5; 1.7 µM (inactive) in the experiment with SK-MEL-2; 1.92 µM (inactive) with SN12C; 0.306 µM (active) with SW-620; 2.14 µM (inactive) in the experiment with UACC-257.

On to `CC[C@H](C)C1=C(O)[N@+]2([O-])Oc3ccc(-c4c(O)c(O)c(-c5ccc(OC(C)=O)cc5)c(OC(C)=O)c4OC(C)=O)cc3O[C@]2([C@@H](C)CC)C(=O)N1O`, for which the GI50 is 12.9 µM (inactive) in the experiment on A498; 16.3 µM (inactive) in the experiment with A549; 34.4 µM (inactive) in the experiment on CAKI-1; 11.7 µM (inactive) with HCC 2998; 9.86 µM (inactive) in the experiment on HCT-116; 29.9 µM (inactive) in the experiment with KM12. Further, the GI50 is 12.9 µM (inactive) in the experiment with LOX IMVI; 24.2 µM (inactive) in the experiment with MCF7; 21.9 µM (inactive) in the experiment with MDA-MB-231; 27.9 µM (inactive) in the experiment on MDA-MB-435; 34 µM (inactive) with MDA-N; 12.7 µM (inactive) in the experiment with MOLT-4. Also, the GI50 in the experiment on NCI-H460 is 21.5 µM (inactive); in the experiment on OVCAR-5 it was 47.1 µM (inactive); in the experiment on SK-MEL-2 it was > 50 µM (inactive); in the experiment on SN12C, 17.2 µM (inactive); in the experiment on SNB-19, 45.3 µM (inactive); with SW-620 it was 10.7 µM (inactive). Also, the GI50 in the experiment on UACC-257 was > 50 µM (inactive).

For the molecule `O=C(CC(C(=O)c1ccsc1)c1ccccc1)c1cccs1` (stereo unspecified), the GI50 is 77.6 µM (inactive) in the experiment on A498; > 100 µM (inactive) with CAKI-1; 85.3 µM (inactive) with HCC 2998; 44.5 µM (inactive) in the experiment on HCT-116; 26.8 µM (inactive) in the experiment with KM12; 33 µM (inactive) in the experiment with MCF7. The GI50 in the experiment with MDA-MB-231 is 22.2 µM (inactive); in the experiment on MDA-MB-435 it was 40.6 µM (inactive); in the experiment with MDA-N it was 69.2 µM (inactive); in the experiment on MOLT-4 it was 49.9 µM (inactive); with NCI-H226, > 100 µM (inactive); with NCI-H460, 27.1 µM (inactive). Further, the GI50 with OVCAR-5 was > 100 µM (inactive); in the experiment on SN12C, > 100 µM (inactive); in the experiment with SW-620, > 100 µM (inactive); with UACC-257, 61 µM (inactive).

Turning to `COc1cc(C=C2N=C(c3ccccc3)N(n3c(-c4ccccc4)nc4ccccc4c3=O)C2=O)cc(OC)c1OC`, the GI50 with A549 was 36.9 µM (inactive); with CAKI-1 it was 48.3 µM (inactive); in the experiment on HCC 2998, 30.7 µM (inactive); in the experiment on HCT-116, 22.2 µM (inactive); with KM12, 19.7 µM (inactive); with LOX IMVI, 21.6 µM (inactive). Moreover, the GI50 in the experiment with MCF7 was 22 µM (inactive); in the experiment with MDA-MB-231, 21.9 µM (inactive); with MDA-MB-435, 24.3 µM (inactive); in the experiment with MDA-N it was 29 µM (inactive); in the experiment with MOLT-4, 30 µM (inactive); in the experiment on NCI-H226 it was 25.6 µM (inactive). The GI50 in the experiment with NCI-H460 was 20.3 µM (inactive); with OVCAR-5 it was 38.9 µM (inactive); in the experiment on SK-MEL-2 it was 21.1 µM (inactive); in the experiment on SN12C, 16.9 µM (inactive); with SNB-19 it was 24.7 µM (inactive); in the experiment with SW-620, 31.9 µM (inactive). Besides, the GI50 in the experiment with UACC-257 was 20.1 µM (inactive).

As for `CCCCNC(=S)N/C=C1\C(=O)Oc2ccccc2C1=O`, the GI50 in the experiment with A549 was > 100 µM (inactive); in the experiment with CAKI-1, 26.1 µM (inactive); with HCC 2998 it was 68.7 µM (inactive); in the experiment on HCT-116 it was 73.5 µM (inactive); with KM12 it was > 100 µM (inactive); in the experiment with LOX IMVI it was > 100 µM (inactive). Moreover, the GI50 in the experiment on MCF7 is > 100 µM (inactive); in the experiment with MDA-MB-231, 73.8 µM (inactive); with MDA-MB-435 it was 61 µM (inactive); with MDA-N, 64 µM (inactive); with MOLT-4 it was 43.3 µM (inactive); in the experiment on NCI-H226 it was > 100 µM (inactive). In addition, the GI50 in the experiment with NCI-H460 is 64.1 µM (inactive); in the experiment on OVCAR-5, > 100 µM (inactive); in the experiment on SK-MEL-2, 38.5 µM (inactive); in the experiment with SN12C it was 68.5 µM (inactive); in the experiment with SNB-19, 49.4 µM (inactive); in the experiment with SW-620, 41.7 µM (inactive). Further, the GI50 in the experiment with UACC-257 was > 100 µM (inactive).

Regarding `CCOC(=O)N1CCN(c2c(C)nc(C)nc2O)CC1`, the GI50 in the experiment with A498, in the experiment with A549, in the experiment on CAKI-1, in the experiment with HCC 2998, in the experiment on HCT-116 and in the experiment with KM12 was > 100 µM (inactive) throughout. The GI50 in the experiment with LOX IMVI, in the experiment on MCF7, in the experiment on MDA-MB-231, in the experiment on MDA-MB-435, in the experiment with MDA-N and in the experiment with MOLT-4 was > 100 µM (inactive) each time. The GI50 in the experiment with NCI-H226, with NCI-H460, in the experiment with SN12C, with SNB-19, in the experiment on SW-620 and with UACC-257 was > 100 µM (inactive) each time.

Take `Nc1ccn(C2OC(C(OC3OC(CO)C(O)C(N)C3O)C(O)C(O)C(O)C(O)CO)C(N)C(O)C2O)c(=O)n1` (stereo unspecified): the GI50 was > 100 µM (inactive) in the experiment with A498; > 100 µM (inactive) in the experiment with A549; 61 µM (inactive) with CAKI-1; 5.26 µM (inactive) in the experiment with HCC 2998; 46.3 µM (inactive) in the experiment on HCT-116; 70 µM (inactive) in the experiment with KM12. Also, the GI50 in the experiment with LOX IMVI is 21.7 µM (inactive); in the experiment with MCF7, > 100 µM (inactive); with MDA-MB-231, 6.44 µM (inactive); with MDA-MB-435 it was > 100 µM (inactive); in the experiment with MDA-N, > 100 µM (inactive); with MOLT-4, > 100 µM (inactive). The GI50 with NCI-H460 is 22 µM (inactive); in the experiment on OVCAR-5, 15 µM (inactive); with SK-MEL-2 it was > 100 µM (inactive); in the experiment on SN12C it was > 100 µM (inactive); in the experiment with SNB-19 it was 47.3 µM (inactive); with SW-620 it was > 100 µM (inactive). Besides, the GI50 with UACC-257 was > 100 µM (inactive).

On to `O=C(/C=C/c1ccc(Cl)cc1)c1ccc(Cl)s1`, for which the GI50 was 19.1 µM (inactive) with A498; 62.2 µM (inactive) in the experiment with A549; 22.2 µM (inactive) in the experiment with HCC 2998; 10.5 µM (inactive) in the experiment with HCT-116; 29.1 µM (inactive) in the experiment on KM12; 12.2 µM (inactive) with LOX IMVI. Further, the GI50 with MCF7 was 4.8 µM (inactive); in the experiment with MDA-MB-231, 60.7 µM (inactive); in the experiment with MDA-MB-435 it was > 10 µM (inactive); with MDA-N, 28.4 µM (inactive); in the experiment on MOLT-4 it was 27.7 µM (inactive); in the experiment on NCI-H460 it was 67.8 µM (inactive). Moreover, the GI50 with OVCAR-5 is > 100 µM (inactive); in the experiment with SN12C, > 100 µM (inactive); in the experiment with SNB-19 it was 50.5 µM (inactive); with SW-620, 22 µM (inactive); with UACC-257, > 100 µM (inactive).
